Laboratory results as given in paper PMC11149917, “Translational and Therapeutic Evaluation of RAS-GTP Inhibition by RMC-6236 in RAS-Driven Cancers” (Cancer Discovery, 2024).
Several values for one entry are separate records, joined by “and”; a condition that tells them apart may be missing. Equal values may be shown once. Read-outs that look alike come from different tables or passages of the source.

Assay: Mouse blood and tissue PK (LC/MS-MS)
Assay type: in vivo
Settings: for AUC(0-t): read-out: Blood AUClast; for half-life: read-out: Blood t1/2 (converted); for concentration at 4 h: read-out: RMC-6236 (nM) Tumor
Description: For single-dose PKPD study, mice were randomized and assigned into groups (n = 3/dose/time point). […] Blood and tissues, including the tumor, brain, colon, ear skin, and muscle, were harvested at indicated time points. […] The whole blood, tumor, brain, colon, and ear skin concentrations of RMC-6236 were determined using liquid chromatography–tandem mass spectrometry (LC/MS-MS) methods. […] After thorough mixing and centrifugation, the supernatant was diluted with water or directly analyzed on a Sciex 5500 or Sciex 6500+ triple quadrupole mass spectrometer equipped with an ACQUITY or Shimadzu UPLC system. […] Bioanalysis on blood and tissue samples from xenograft models was run at Pharmaron and Wuxi AppTec. Concentrations reported as below the quantification limit were treated as zero for PK analysis. PK parameters were calculated by noncompartmental analysis of the concentration–time profiles using Phoenix WinNonLin (version 8.3 Certara). Apparent terminal elimination half-life (t1/2) values were calculated as ln(2)/k, where k represents the terminal elimination rate constant. Area under the concentration–time curve (AUC) values were estimated using a linear trapezoidal method. AUClast values were calculated from the dosing time to the last quantifiable concentration. Maximum concentration (Cmax) was recorded as observed.

[1] = Balb/c nude, mouse, whole blood, po, 25 mg/kg, LU99-luc IC (25 mg/kg), single dose
[2] = Balb/c nude, mouse, whole blood, sc, 25 mg/kg, LU99-luc SC (25 mg/kg), single dose
[3] = Capan-2 (10 mg/kg), single dose
[4] = Capan-2 (25 mg/kg), single dose
[5] = LU99-luc IC #2 (25 mg/kg), adjacent normal brain
[6] = LU99-luc IC #2 (25 mg/kg), intracranial tumor
[7] = LU99-luc IC (25 mg/kg), intracranial tumor
[8] = LU99-luc SC (25 mg/kg), subcutaneous xenograft tumor
[9] = NCI-H358 (25 mg/kg), single dose
[10] = NCI-H441 #2 (25 mg/kg), QD x 10 days
[11] = NCI-H441 (3 mg/kg), single dose
[12] = NCI-H441 (10 mg/kg), single dose
[13] = NCI-H441 (25 mg/kg), single dose

SMILES: CCn1c(-c2cc(N3CCN(C)CC3)cnc2[C@H](C)OC)c2c3cc(ccc31)-c1csc(n1)C[C@H](NC(=O)[C@H]1C[C@@H]1C)C(=O)N1CCC[C@H](N1)C(=O)OCC(C)(C)C2 [RMC-6236]
- AUC(0-t) [1]: 16700 ng·h/mL
- half-life [1]: 3.81 h
- Cmax [2]: 1650 ng/mL
- AUC(0-t) [2]: 18600 ng·h/mL
- half-life [2]: 3.13 h
- Tumor AUClast (Capan-2 (3 mg/kg), single dose): 5138 ng·h/mL
- Tumor Cmax (Capan-2 (3 mg/kg), single dose): 218 ng/mL
- Tumor AUClast [3]: 23425 ng·h/mL
- Tumor Cmax [3]: 906 ng/mL
- Tumor AUClast [4]: 66696 ng·h/mL
- Tumor Cmax [4]: 3000 ng/mL
- concentration at 4 h (Capan-2, study Capan-2 #3_PHA 2020, 0.3 mg/kg, 2h): 21.6 nM and 12.8 nM
- concentration at 4 h (Capan-2, study Capan-2 #3_PHA 2020, 0.3 mg/kg, 8h): 15.8 nM and 20.9 nM
- concentration at 4 h (Capan-2, study Capan-2 #3_PHA 2020, 0.3 mg/kg, 24h): 7.5 nM and 9 nM
- RMC-6236 (nM) Tumor (Capan-2, study Capan-2 #3_PHA 2020, 0.3 mg/kg, 48h): BQL
- concentration at 4 h (Capan-2, study Capan-2 #3_PHA 2020, 3 mg/kg, 2h): 206 nM and 213 nM
- concentration at 4 h (Capan-2, study Capan-2 #3_PHA 2020, 3 mg/kg, 8h): 232 nM and 155 nM
- concentration at 4 h (Capan-2, study Capan-2 #3_PHA 2020, 3 mg/kg, 24h): 93 nM and 106 nM
- concentration at 4 h (Capan-2, study Capan-2 #3_PHA 2020, 3 mg/kg, 48h): 29 nM and 32 nM
- concentration at 4 h (Capan-2, study Capan-2 #3_PHA 2020, 10 mg/kg, 2h): 735 nM and 868 nM
- concentration at 4 h (Capan-2, study Capan-2 #3_PHA 2020, 10 mg/kg, 8h): 784 nM and 1189 nM
- concentration at 4 h (Capan-2, study Capan-2 #3_PHA 2020, 10 mg/kg, 24h): 388 nM and 425 nM
- concentration at 4 h (Capan-2, study Capan-2 #3_PHA 2020, 10 mg/kg, 48h): 127 nM and 106 nM
- concentration at 4 h (Capan-2, study Capan-2 #3_PHA 2020, 25 mg/kg, 2h): 1563 nM and 2949 nM
- concentration at 4 h (Capan-2, study Capan-2 #3_PHA 2020, 25 mg/kg, 8h): 2249 nM and 3216 nM
- concentration at 4 h (Capan-2, study Capan-2 #3_PHA 2020, 25 mg/kg, 24h): 1455 nM and 1672 nM
- concentration at 4 h (Capan-2, study Capan-2 #3_PHA 2020, 40 mg/kg, 2h): 6510 nM and 4764 nM
- concentration at 4 h (Capan-2, study Capan-2 #3_PHA 2020, 40 mg/kg, 8h): 4542 nM and 4547 nM
- concentration at 4 h (Capan-2, study Capan-2 #3_PHA 2020, 40 mg/kg, 24h): 2254 nM
- concentration at 4 h (Capan-2, study Capan-2 #3_PHA 2023, 3 mg/kg, 2h): 210.835 nM and 145.489 nM
- concentration at 4 h (Capan-2, study Capan-2 #3_PHA 2023, 3 mg/kg, 4h): 272.483 nM and 245.358 nM
- concentration at 4 h (Capan-2, study Capan-2 #3_PHA 2023, 3 mg/kg, 8h): 266.318 nM and 212.068 nM
- concentration at 4 h (Capan-2, study Capan-2 #3_PHA 2023, 3 mg/kg, 24h): 131.926 nM and 103.198 nM
- concentration at 4 h (Capan-2, study Capan-2 #3_PHA 2023, 3 mg/kg, 48h): 42.167 nM and 42.4136 nM
- concentration at 4 h (Capan-2, study Capan-2 #3_PHA 2023, 10 mg/kg, 2h): 596.75 nM and 1028.28 nM
- concentration at 4 h (Capan-2, study Capan-2 #3_PHA 2023, 10 mg/kg, 4h): 1166.37 nM and 954.307 nM
- concentration at 4 h (Capan-2, study Capan-2 #3_PHA 2023, 10 mg/kg, 8h): 1105.96 nM and 773.062 nM
- concentration at 4 h (Capan-2, study Capan-2 #3_PHA 2023, 10 mg/kg, 24h): 401.943 nM and 517.841 nM
- concentration at 4 h (Capan-2, study Capan-2 #3_PHA 2023, 10 mg/kg, 48h): 125.761 nM and 157.818 nM
- concentration at 4 h (Capan-2, study Capan-2 #3_PHA 2023, 25 mg/kg, 2h): 1750.8 nM and 1824.77 nM
- concentration at 4 h (Capan-2, study Capan-2 #3_PHA 2023, 25 mg/kg, 4h): 5030.45 nM and 3020.74 nM
- concentration at 4 h (Capan-2, study Capan-2 #3_PHA 2023, 25 mg/kg, 8h): 2379.6 nM and 2700.17 nM
- concentration at 4 h (Capan-2, study Capan-2 #3_PHA 2023, 25 mg/kg, 24h): 1997.39 nM and 1442.56 nM
- concentration at 4 h (Capan-2, study Capan-2 #3_PHA 2023, 50 mg/kg, 2h): 5178.41 nM and 4956.48 nM
- concentration at 4 h (Capan-2, study Capan-2 #3_PHA 2023, 50 mg/kg, 4h): 6411.36 nM and 6731.93 nM
- concentration at 4 h (Capan-2, study Capan-2 #3_PHA 2023, 50 mg/kg, 8h): 6251.08 nM and 3945.45 nM
- concentration at 4 h (Capan-2, study Capan-2 #3_PHA 2023, 50 mg/kg, 24h): 2996.08 nM and 1775.45 nM
- concentration at 4 h (Capan-2, study Capan-2 #3_PHA 2023, 100 mg/kg, 2h): 9025.23 nM and 8877.27 nM
- concentration at 4 h (Capan-2, study Capan-2 #3_PHA 2023, 100 mg/kg, 4h): 16521.6 nM and 11417.2 nM
- concentration at 4 h (Capan-2, study Capan-2 #3_PHA 2023, 100 mg/kg, 8h): 14795.5 nM and 9185.51 nM
- concentration at 4 h (Capan-2, study Capan-2 #3_PHA 2023, 100 mg/kg, 24h): 4216.7 nM and 3328.98 nM
- concentration at 4 h (Capan-2, study Capan-2 #3_PHA 2023, 100 mg/kg, 48h): 1124.45 nM and 1331.59 nM
- concentration at 4 h (HPAC #3, 50 mg/kg, 24h, individual animals, 50 mg/kg): 3354 nM
- concentration at 4 h (HPAC #3, 50 mg/kg, 48h, individual animals, 50 mg/kg): 1332 nM and 1603 nM
- concentration at 4 h (HPAC #4, 3 mg/kg, 4h, individual animals, 3 mg/kg): 108 nM and 297 nM and 238 nM
- concentration at 4 h (HPAC #4, 3 mg/kg, 8h, individual animals, 3 mg/kg): 335 nM and 387 nM
- concentration at 4 h (HPAC #4, 3 mg/kg, 24h, individual animals, 3 mg/kg): 207 nM and 164 nM
- RMC-6236 (nM) Tumor (HPAC #4, 3 mg/kg, 48h, individual animals): BQL
- concentration at 4 h (HPAC #4, 3 mg/kg, 48h, individual animals, 3 mg/kg): 29.3 nM
- concentration at 4 h (HPAC #4, 10 mg/kg, 4h, individual animals, 10 mg/kg): 957 nM and 831 nM
- concentration at 4 h (HPAC #4, 10 mg/kg, 8h, individual animals, 10 mg/kg): 1566 nM and 1418 nM
- concentration at 4 h (HPAC #4, 10 mg/kg, 24h, individual animals, 10 mg/kg): 386 nM and 374 nM
- concentration at 4 h (HPAC #4, 10 mg/kg, 48h, individual animals, 10 mg/kg): 210 nM and 212 nM
- concentration at 4 h (HPAC #4, 25 mg/kg, 4h, individual animals, 25 mg/kg): 2897 nM and 4130 nM
- RMC-6236 (nM) Tumor (HPAC #11, 0.3 mg/kg, 4h, individual animals): BQL
- RMC-6236 (nM) Tumor (HPAC #11, 0.3 mg/kg, 8h, individual animals): BQL
- RMC-6236 (nM) Tumor (HPAC #11, 0.3 mg/kg, 24h, individual animals): BQL
- RMC-6236 (nM) Tumor (HPAC #11, 0.3 mg/kg, 48h, individual animals): BQL
- RMC-6236 (nM) Tumor (HPAC #11, 1 mg/kg, 24h, individual animals): BQL
- RMC-6236 (nM) Tumor (HPAC #11, 1 mg/kg, 48h, individual animals): BQL
- Tumor AUClast (HPAC (25 mg/kg), single dose): 79219 ng·h/mL
- Tumor Cmax (HPAC (25 mg/kg), single dose): 3007 ng/mL
- Tumor AUClast (KP-4 (25 mg/kg), single dose): 79463 ng·h/mL
- Tumor Cmax (KP-4 (25 mg/kg), single dose): 3582 ng/mL
- Brain AUClast [5]: 396 ng·h/mL
- Brain Cmax [5]: 63.2 ng/mL
- Tumor AUClast [6]: 2537 ng·h/mL
- Tumor Cmax [6]: 139 ng/mL
- Tumor AUClast [7]: 2004 ng·h/mL
- Tumor Cmax [7]: 142 ng/mL
- Tumor AUClast (h × ng/mL) [8]: 75128 #2 h × ng/mL
- Tumor Cmax (ng/mL) [8]: 2367 #2 ng/mL
- Tumor AUClast [9]: 51307 ng·h/mL
- Tumor Cmax [9]: 3083 ng/mL
- Tumor AUClast [10]: 32762 ng·h/mL
- Tumor Cmax [10]: 1527 ng/mL
- Tumor AUClast [11]: 6321 ng·h/mL
- Tumor Cmax [11]: 253 ng/mL
- Tumor AUClast [12]: 17526 ng·h/mL
- Tumor Cmax [12]: 821 ng/mL
- Tumor AUClast [13]: 55019 ng·h/mL
- Tumor Cmax [13]: 2083 ng/mL
- RMC-6236 (nM) Tumor (NCI-H441 xenograft tumor, study NCI-H441#10, 0.3 mg/kg, 48h): BQL
- RMC-6236 (nM) Tumor (NCI-H441 xenograft tumor, study NCI-H441#10, 1 mg/kg, 48h): BQL
- RMC-6236 (nM) Tumor (NCI-H441 xenograft tumor, study NCI-H441#13, 0.3 mg/kg, 24h): BQL
